Laboratory results reported in the NIST ThermoML archive (doi:10.1021/je030167i).

Experiments:
[1] = xn = mol fraction of the nth substance listed; conditions: 101.3 kPa, Liquid
[2] = 101.3 kPa, Liquid

CC1CCCO1 (centres undefined) [2-methyltetrahydrofuran] + CC(C)CO
[1]
Conditions | kinematic viscosity, 298.15 K [m2/s] | kinematic viscosity, 313.15 K [m2/s] | mass density, 298.15 K [kg/m3] | mass density, 313.15 K [kg/m3]
x2 = 0 | 5.59e-07 | 4.92e-07 | 849.28 | 834.01
x2 = 0.0397 | 5.85e-07 | 5.06e-07 | 847.52 | 832.15
x2 = 0.0951 | 6.17e-07 | 5.31e-07 | 844.97 | 829.82
x2 = 0.1999 | 6.87e-07 | 5.88e-07 | 840.08 | 825.25
x2 = 0.3008 | 7.77e-07 | 6.54e-07 | 835.46 | 820.88
x2 = 0.3982 | 8.96e-07 | 7.47e-07 | 830.71 | 816.54
x2 = 0.4988 | 1.04e-06 | 8.47e-07 | 825.72 | 811.84
x2 = 0.5992 | 1.26e-06 | 9.96e-07 | 820.51 | 807.01
x2 = 0.7013 | 1.58e-06 | 1.22e-06 | 815.04 | 801.97
x2 = 0.7995 | 2.06e-06 | 1.51e-06 | 809.54 | 796.99
x2 = 0.9048 | 2.93e-06 | 2.02e-06 | 803.45 | 791.39
x2 = 0.9557 | 3.55e-06 | 2.36e-06 | 800.39 | 788.49

CC1CCCO1 (centres undefined) [2-methyltetrahydrofuran] + CC(C)CCl
[1], x2 = 0
Conditions | kinematic viscosity [m2/s] | mass density [kg/m3]
298.15 K | 5.59e-07 | 849.28
313.15 K | 4.92e-07 | 834.01

CCC(C)O (centres undefined) [butan-2-ol] + CC1CCCO1
[1], x1 = 1
Conditions | kinematic viscosity [m2/s] | mass density [kg/m3]
298.15 K | 3.73e-06 | 802.25
313.15 K | 2.24e-06 | 789.44

CC(C)(C)Cl [2-chloro-2-methylpropane] + CC1CCCO1
[1], 298.15 K
Conditions | kinematic viscosity [m2/s] | mass density [kg/m3]
x1 = 0.0481 | 5.59e-07 | 849.09
x1 = 0.0972 | 5.57e-07 | 848.97
x1 = 0.196 | 5.55e-07 | 848.4
x1 = 0.2907 | 5.55e-07 | 847.61
x1 = 0.3874 | 5.54e-07 | 846.54
x1 = 0.4878 | 5.54e-07 | 845.21
x1 = 0.5888 | 5.55e-07 | 843.72
x1 = 0.7 | 5.57e-07 | 842.04
x1 = 0.7912 | 5.59e-07 | 840.61
x1 = 0.8945 | 5.62e-07 | 838.65
x1 = 0.9474 | 5.63e-07 | 837.24
x1 = 1 | 5.66e-07 | 835.75

CC(C)(C)O [2-methylpropan-2-ol]
[2]
Conditions | kinematic viscosity [m2/s] | mass density [kg/m3]
298.15 K | 5.59e-06 | 780.67
313.15 K | 2.74e-06 | 765.33
